Target: T1, Human neutrophil elastase (Homo sapiens, UniProt P08246)
T1 construct: purchased ART Biochemicals, Athens, Ga
T1 sequence (P08246 30-267): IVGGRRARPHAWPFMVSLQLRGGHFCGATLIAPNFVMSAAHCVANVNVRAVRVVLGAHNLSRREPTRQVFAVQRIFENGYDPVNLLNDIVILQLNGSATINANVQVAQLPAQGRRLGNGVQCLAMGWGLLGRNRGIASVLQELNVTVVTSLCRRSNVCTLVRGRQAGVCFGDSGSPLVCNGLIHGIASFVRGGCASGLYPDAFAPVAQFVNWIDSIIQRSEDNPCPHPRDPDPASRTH
Test: Inhibitory selectivity of HCV NS3 protease over elastase (human neutrophil elastase assay)
Format: biochemical
Details: IC50 (elastase) divided by IC50 (HCV NS3)
Description: Selectivity of HCV NS3 over elastase can be calculated by dividing IC50 (elastase) over IC50 (HCV NS3). Similarily, selectivity of HCV NS3 over chymotrypsin can be calculated by dividing IC50 (chymotrypsin) over IC50 (HCV NS3).
Human neutrophil elastase was obtained from ART Biochemicals, Athens, Ga. Stock solutions of lyophilized enzyme (1 mg/ml) were prepared in PBS buffer containing 10% glycerol and stored at −20 ° C. Human neutrophil elastase was assayed with the Meo-Suc-Ala-Ala-Pro-Val-p-nitroanilide (Sigma) as a substrate (C. Kettner and A. Shenvi, 1984). The hydrolysis of substrate was monitored at 405 nm on a Hewlett-Packard spectrophotometer.

Compound: H-Asp-Glu-Val-Val-Pro-(1R)-1-amino-3-(4-isopropyl)phenylpropylboronic acid (+)-pinanediol ester [Example 18]
- Selectivity of HCV NS3 vs. elastase: >10

Compound: H-Asp-Glu-Val-Val-Pro-(1R)-1-amino-3-(4-cyclohexyl)phenylpropylboronic acid (+)-pinanediol ester [Example 19]
- Selectivity of HCV NS3 vs. elastase: >10

Compound: H-Asp-Glu-Val-Val-Pro-(1R)-1-amino-3-(4-trifluoromethyl)phenylpropylboronic acid (+)-pinanediol ester [Example 14]
- Selectivity of HCV NS3 vs. elastase: >10

Compound: H-Asp-Glu-Val-Val-Pro-(1R)-1-amino-3-(4-bromo)phenylpropylboronic acid (+)-pinanediol ester [Example 23]
- Selectivity of HCV NS3 vs. elastase: >10

Compound: H-Asp-Glu-Val-Val-Pro-(1R)-1-amino-3-(1,1′-biphenyl)-4-ylpropylboronic acid (+)-pinanediol ester [Example 11]
- Selectivity of HCV NS3 vs. elastase: >10

Compound: H-Asp-Glu-Val-Val-Pro-(1R)-1-amino-5-phenylpentylboronic acid (+)-pinanediol ester [Example 5]
- Selectivity of HCV NS3 vs. elastase: 9

Compound: H-Asp-Glu-Val-Val-Pro-(1R)-1-amino-3-(4-fluoro)phenylpropylboronic acid (+)-pinanediol ester [Example 16]
- Selectivity of HCV NS3 vs. elastase: >10

Compound: H-Asp-Glu-Val-Val-Pro-(1R)-1-amino-3-(4-methoxy)phenylpropylboronic acid (+)-pinanediol ester [Example 21]
- Selectivity of HCV NS3 vs. elastase: >10

Compound: CC(C)[C@H](NC(=O)c1cnccn1)C(=O)N[C@H](C(=O)N1C[C@H](OCc2ccccc2)C[C@H]1C(=O)N[C@@H](CCc1ccc(C(F)(F)F)cc1)B1OC2CC3CC(C3(C)C)C2(C)O1)C(C)C (stereo partly drawn) [Example 34, (2-pyrazinecarbonyl)-Val-Val-Hyp(OBzl)-(1R)-1-amino-3-(4-trifluoromethyl)phenylpropylboronic acid (+)-pinanediol ester]
- Selectivity of HCV NS3 vs. elastase: 7

Compound: H-Asp-Glu-Val-Val-Pro-(1R)-1-amino-3-(4-chloro)phenylpropylboronic acid (+)-pinanediol ester [Example 22]
- Selectivity of HCV NS3 vs. elastase: >10

Compound: H-Asp-Glu-Val-Val-Pro-(1R)-1-amino-3-(4-phenoxy)phenylpropylboronic acid (+)-pinanediol ester [Example 17]
- Selectivity of HCV NS3 vs. elastase: >10

Compound: H-Asp-Glu-Val-Val-Pro-(1R)-1-amino-5-methylhexylboronic acid (+)-pinanediol ester [Example 36]
- Selectivity of HCV NS3 vs. elastase: >10

Compound: H-Asp-Glu-Val-Val-Pro-(1R)-1-amino-3-(3-methyl)phenylpropylboronic acid (+)-pinanediol ester [Example 9]
- Selectivity of HCV NS3 vs. elastase: >10

Compound: H-Asp-Glu-Val-Val-Pro-(1R)-1-amino-3-phenylpropylboronic acid (+)-pinanediol ester [Example 3]
- Selectivity of HCV NS3 vs. elastase: >10

Compound: H-Asp-Glu-Val-Val-Pro-(1R)-1-amino-3-(4-hydroxy)phenylpropylboronic acid (+)-pinanediol ester [Example 27]
- Selectivity of HCV NS3 vs. elastase: >10

Compound: H-Asp-Glu-Val-Val-Pro-(1R)-1-amino-3-(4-tert-butyl)phenylpropylboronic acid (+)-pinanediol ester [Example 20]
- Selectivity of HCV NS3 vs. elastase: >10

Compound: H-Asp-Glu-Val-Val-Pro-(1R)-1-amino-3-(4-methyl)phenylpropylboronic acid (+)-pinanediol ester [Example 10]
- Selectivity of HCV NS3 vs. elastase: >10
